≈ marks a conversion by molar mass, not a printed value. Read-outs that look alike come from different tables or passages of the source.
Legend:
P388 leukemia = assay: Antitumor test on P388 leukemia; type: in vivo, mouse; settings: CDF1 mice, 1×10^6 P388 cells i.p., compound into abdominal cavity 24 hours after transplantation, 30 days; dose not given
Experimental: Antitumor Test on P388 Leukemia
The ascitic fluid was collected from the abdominal cavity of P388 ascites-induced mouse (DBA/2) 7 days after the transplantation. The number of P388 cells in the ascitic fluid was counted to prepare a tumor cell suspension of 5×10^6 cells/ml using sterilized physiological saline, and its 0.2 ml portion (containing 1×10^6 cells) was transplanted into the abdominal cavity of CDF1 mice having 20 to 25 g in body weight. […] Effects of the test compounds were judged by the ratio of average survival days in the test compound-administered group to that in the control group (un-treated group) (increased life span, ILS %).

sarcoma 180 solid tumor = assay: Antitumor test on sarcoma 180 solid tumors; type: in vivo, mouse; settings: ddY mice, intravenous injection 24 hours after s.c. transplantation, tumor volume at 7 days; dose not given
Experimental: Antitumor Test on Sarcoma 180 Solid Tumors
Seven days after transplantation of 5×10^6 of sarcoma 180 cells into the abdominal cavity of a ddY mouse, the cells were collected from the ascitic fluid, washed once with sterilized physiological saline and then made into a cell suspension of 5×10^7 cells/ml using sterilized physiological saline. A 0.1 ml portion of the cell suspension was transplanted under the skin of the right side axillary part of ddY mice of 20±2 g in body weight and, after 24 hours of the tumor transplantation, 0.1 to 0.2 ml of each test compound dissolved in physiological saline or polyoxyethylene sorbitan monolaurate-containing physiological saline was administered by intravenous injection to ddY mice of 5 animals per group. The major axis (a) and the minor axis (b) of each tumor 7 days after the transplantation were measured to calculate the tumor volume as an a×b^2 /2 value. Antitumor activity of each test compound was expressed by the ratio (T/C) of the tumor volume (T) of the test compound-administered group to the tumor volume (C) of the control group in which the drug was not administered.

[1] = test system: Eacillus subtilis No. 10707; assay: Antibacterial activity test (agar dilution method); type: cell-based; settings: pH 7, Eacillus subtilis No. 10707, read-out: Minimum growth inhibition concentration (MIC), BS
Experimental: (§1) Antibacterial Activity Test
(§2) the antibacterial activity was measured by an agar dilution method using a medium (pH 7) which has been prepared by dissolving 3 g of Bacto-Tryptone (manufactured by Difco), 3 g of meat extract, 1 g of yeast extract, 1 g of flucose and 16 g of agar in 1 l of water. The antibacterial activity was expressed by minimum growth inhibition concentration (MIC).
BS: Eacillus subtilis No. 10707

T cell growth = T cell growth inhibition test by mixed mouse lymphocyte culture reaction; type: cell-based; settings: 72 hours, 37° C., [^3 H]-thymidine incorporation, AKR spleen / B10.BR lymph node cells
Experimental: T Cell Growth Inhibition Test by Mixed Mouse Lymphocyte Culture Reaction
The spleen was excised aseptically from an AKR mouse (Japan SLC Co., Ltd.) and made into a single cell suspension. The suspension was mixed with mitomycin C (MMC) (Kyowa Hakko Kogyo Co., Ltd.) (final concentration, 50 μg/ml) and cultured at 37° C. for 30 minutes. After the culturing, the cells were washed three times with a solution (HBSS) prepared by adding 2.5% fetal calf serum (FCS, Gibco Co.) to Hanks' balanced salt solution (Gibco Co.) and then adjusted to a density of 1×10^7 cells/ml.
A 50 μl portion of B10.BR mouse (Japan SLC Co., Ltd.) lymph node cell suspension (containing 1.5×10^5 cells), 50 μl of AKR mouse spleen cell suspension (containing 5×10^5 cells) and 100 μl of radicicol solution having each test concentration were added to each well of a 96 well microtiter plate and cultured at 37° C. for 72 hours in a CO2 incubator. A 1.0 μCi portion of [^3 H]-thymidine was added 18 hours before the completion of the culturing. After completion of the culturing, the cells were trapped on a filter paper using a cell harvester and dried, and then a toluene scintillator was added thereto to measure the amount of radioactivity of [^3 H]-thymidine incorporated into cells using a scintillation counter (test group). As a control group, the same culturing was carried out without adding the solution of Compound (I) and then the amount of radioactivity of [^3 H]-thymidine incorporated into cells was measured. The T cell growth inhibition ratio was calculated based on the following formula, from which the concentration of each test compound that inhibits 50% of the growth (IC50 was calculated. [formula] (In the above formula, the radioactivity in MMC-treated AKR mouse means the radiation dose of [^3 H]-thymidine incorporated into MMC-treated AKR mouse spleen cells, and the radioactivity in B10.BR mouse means the radiation dose of [^3 H]-thymidine incorporated into B10.BR mouse lymph node cells.)

HeLa S3 cells = assay: Cell growth inhibition test on HeLa S3 cells; type: cell-based; settings: Homo sapiens, read-out: IC50, cell growth inhibition activity upon HeLa S3 cells
Experimental: Cell Growth Inhibition Test on HeLa S3 Cells
HeLa S3 cells which have been adjusted to 3.0×10^4 cells/ml with MEM medium (manufactured by Nissui Pharmaceutically containing 10% fetal calf serum and 2 mM […] were dispensed in 0.1 ml/well portions into a 96 well microtiter plate. The cells were cultured at 37° C. for 20 hours in a carbon dioxide gas incubator, the culture supernatant was removed and then the plate was washed once with physiological saline. Next, 0.1 ml of the medium containing each test compound was added to each well, and the cells were cultured at 37° C. for 72 hours in the carbon dioxide gas incubator. After removing the culture supernatant, 0.1 ml of the medium containing 0.02% Neutral Red was added to each well, and the cells were stained at 37° C. for 1 hour in the carbon dioxide gas incubator. After removing the culture supernatant, the plate was washed once with physiological saline, the pigment was extracted with 0.001 N hydrochloric acid/30% ethanol and then absorption at 550 nm was measured by a microplate reader. The concentration of each test compound which inhibits 50% of the cell growth (IC50) was calculated by comparing the absorption of un-treated cells with that of the cells treated with known concentration of each sample.

[2] = test system: Candida albicans ATCC 10231; assay: Antibacterial activity test (agar dilution method); type: cell-based; settings: ATCC10231, pH 7, Candida albicans ATCC 10231, read-out: Minimum growth inhibition concentration (MIC), CA
Experimental: as §1, §2
CA: Candida albicans ATCC 10231

[3] = test system: Enterococcus hirae ATCC 10541; type: cell-based; settings: pH 7
Experimental: as §1, §2
EH: Enterococcus hirae ATCC 10541

[4] = test system: intracellular tyrosine kinase (v-Src tyrosine kinase, SR-3Y1 cells); assay: Inhibition test of intracellular tyrosine kinase (tyrosine phosphorylation, Western blotting, SR-3Y1 cells); type: cell-based; settings: Rattus norvegicus, SR3Y1, 37° C., 15 hours, tyrosine-phosphorylated protein, read-out: IC50, inhibitory activity of intracellular tyrosine kinase
Text: The inhibitory effect of the tyrosine kinase activity can be measured by carrying out Western blotting analysis with an anti-phosphotyrosine antibody using a rat fibroblast cell strain SR-3Y1 transformed with an oncogene v-Src (available from RIKEN Gene Bank) and calculating the amount of intracellular protein in which tyrosine is phosphorylated. Since the tyrosine phosphorylation level of intracellular protein in SR-3Y1 cells for use in this method is increased by v-Src tyrosine kinase, the ability of radicicol derivatives to inhibit v-Src tyrosine kinase can be detected as reduction of the amount of protein in which tyrosine is phosphorylated. Robinson, S. P. et al. [International Journal of Oncology, 2, 253 (1993)] report a method for examination of tyrosine phosphorylation inhibition effect by Western blotting analysis, and Kwon, H. J. et al. [Cancer Research, 52, 6926 (1992)] report examples of experiment using SR-3Y1 cells.
Inhibition Test of Intracellular Tyrosine Kinase
SR-3Y1 cells were cultured at 37° C. for 15 hours in an atmosphere of 5% carbon dioxide, using Dulbecco's modified Eagle's medium (DMEM) containing 10% fetal calf serum (FCS), to which each radicicol derivative to be tested has been added in varied concentration. The thus cultured cells were lysed at 4° C. for 20 minutes in a cooled buffer solution for lysis use (50 mM Tris HCl, pH 7.5, 150 mM NaCl, 1% Triton X-100, 0.1% SDS, 1% sodium deoxycholate, 2 mM EDTA, 1 mM PMSF, 20 μM leupeptin, 0.15 unit/ml aprotinin, 1 mM Na3 VO4) and then centrifuged at 20,000 g for 30 minutes. After measuring protein concentration in the resulting supernatant fluid, samples were adjusted to the same protein quantity per lane to carry out separation of protein by SDS-PAGE. The thus separated protein samples were transferred onto a nitrocellulose membrane to which were subsequently added a mouse […] phosphotyrosine antibody MX-pTYR (Kyowa Medex Co., Ltd.) as a first antibody and a horseradish peroxidase-conjugated […] (BIO-RAD Co.) as a second antibody, thereby effecting their reactions with the protein samples on the membrane. Detection was carried out using ECL reagent (Amersham Co.), and the amount of tyrosine-phosphorylated protein was determined by scanning the density of banks obtained on an X-ray film. The activity of radicicol derivative to inhibit tyrosine phosphorylation can be shown as a concentration (IC50) of each derivative by which the ratio of tyrosine-phosphorylated protein is reduced to half in comparison with a control to which the drug is not added.

[5] = HeLa S3, 72 hours, 37° C., Neutral Red

| Structure (SMILES) | MIC [1] [µg/mL] | IC50 (T cell growth) [nM] | IC50 (HeLa S3 cells; [5]) [nM] | IC50 [4] [nM] | further results |
| --- | --- | --- | --- | --- | --- |
| C[C@@H]1C[C@@H](OC=O)C(Cl)/C=C\C=C\C(=O)Cc2c(Cl)c(O)cc(O)c2C(=O)O1 (some centres unmarked) [Compound 1] | 83 (≈ 193 µM) |  |  |  | increased life span (ILS) (P388 leukemia): 38%; T/C (tumor volume ratio) (sarcoma 180 solid tumor): 51% |
| C[C@@H]1C[C@@H](O)C(Cl)/C=C\C=C\C(=O)Cc2c(Cl)c(O)cc(O)c2C(=O)O1 (some centres unmarked) [Compound 2] |  |  |  |  | T/C (tumor volume ratio) (sarcoma 180 solid tumor): 50% |
| C[C@@H]1C[C@@H](O)C(Br)/C=C\C=C\C(=O)Cc2c(Cl)c(O)cc(O)c2C(=O)O1 (some centres unmarked) [Compound 3] | 83 (≈ 186 µM) | 300 |  |  | increased life span (ILS) (P388 leukemia): 46% |
| CC1CC(OS(=O)OC2CC(C)OC(=O)c3c(O)cc(O)c(Cl)c3CC(=O)C=CC=CC2Cl)C(Cl)C=CC=CC(=O)Cc2c(Cl)c(O)cc(O)c2C(=O)O1 (centres unmarked) [Compound 4] | 1.3 (≈ 1.53 µM) |  | 6000 |  | increased life span (ILS) (P388 leukemia): 42%; T/C (tumor volume ratio) (sarcoma 180 solid tumor): 39%; MIC [2]: 2.6 µg/mL (≈ 3.06 µM); Minimum growth inhibition concentration (MIC), EH [3]: 2.6 µg/mL |
| CC(=O)Oc1cc(OC(C)=O)c2c(c1Cl)CC(=O)/C=C/C=C\C(Cl)[C@H](OC=O)C[C@@H](C)OC2=O (some centres unmarked) [Compound 6] |  |  | 5000 |  |  |
| CC(=O)Oc1cc(OC(C)=O)c2c(c1Cl)CC(=O)C=CC=CC(Cl)C(OS(=O)OC1CC(C)OC(=O)c3c(OC(C)=O)cc(OC(C)=O)c(Cl)c3CC(=O)C=CC=CC1Cl)CC(C)OC2=O (centres unmarked) [Compound 7] |  |  | 1500 |  |  |
| C[C@@H]1C[C@H]2O[C@@H]2/C=C\C=C\C(=NO)Cc2c(Cl)c(O)cc(O)c2C(=O)O1 [Compound 8] |  | 10 | 90 | 20 |  |
| CON=C1/C=C/C=C\[C@H]2O[C@@H]2C[C@@H](C)OC(=O)c2c(O)cc(O)c(Cl)c2C1 [Compound 9] | 52 (≈ 132 µM) | 20 | 50 | < 50 | MIC [2]: 6.5 µg/mL (≈ 16.5 µM) |
| C[C@@H]1C[C@H]2O[C@@H]2/C=C\C=C\C(=O)Cc2c(Cl)c(O[Si](C)(C)C(C)(C)C)cc(O[Si](C)(C)C(C)(C)C)c2C(=O)O1 [Compound 10] |  |  | 3200 | 150 |  |
| C[C@@H]1C[C@H]2O[C@@H]2/C=C\C=C\C(=NO)Cc2c(Cl)c(O[Si](C)(C)C(C)(C)C)cc(O[Si](C)(C)C(C)(C)C)c2C(=O)O1 [Compound 11] |  |  |  | 20 | IC50 (HeLa S3 cells; HeLa S3, 72 h): 120 nM |
| COCON=C1/C=C/C=C\[C@H]2O[C@@H]2C[C@@H](C)OC(=O)c2c(O)cc(O)c(Cl)c2C1 [Compound 13] |  |  | 20 |  |  |
| C[C@@H]1C[C@H]2O[C@@H]2/C=C\C=C\C(=NOCCCN=[N+]=[N-])Cc2c(Cl)c(O)cc(O)c2C(=O)O1 [Compound 14] |  |  | 50 | < 50 |  |
| CCCCCCCCCCCCCCCC(=O)Oc1cc(OC(=O)CCCCCCCCCCCCCCC)c2c(c1Cl)CC(=O)/C=C/C=C\C(Br)[C@H](O)C[C@@H](C)OC2=O (some centres unmarked) [Compound 19] |  | 150 |  |  |  |
| C[C@@H]1C[C@H]2O[C@@H]2/C=C\C=C\C(=O)Cc2c(Cl)c(O)cc(O)c2C(=O)O1 [Radicicol, radicicol] | 83 (≈ 228 µM) | 150 |  | 180 | IC50 (HeLa S3 cells; HeLa S3, 72 h): 6700 nM; increased life span (ILS) (P388 leukemia): 27%; T/C (tumor volume ratio) (sarcoma 180 solid tumor): 88%; MIC [2]: 20 µg/mL (≈ 54.8 µM) |

Source: patent US5977165A, “Radicicol derivatives” (Kyowa Hakko Kogyo Co., Ltd., priority 1995, dated 1999)
